System: IL-12 production in human PBMC or THP-1 cells
Assay: Human in vitro assay: inhibition of IL-12 production in human PBMC or THP-1 cells (ELISA)
Assay type: cell-based
Settings: THP-1, human PBMC or THP-1 cells, IFNγ plus LPS or SAC stimulation, representative in vitro data
Source text: The biological activities of the compounds of the invention can be evaluated by a number of cell-based assays. One of such assays can be conducted using cells from human peripheral blood mononuclear cells (PBMC) or human monocytic cell line (THP-1). The cells are stimulated with a combination of human interferon-γ (IFNγ) and lipopolysaccharide or a combination of IFNγ and Staphylococcus aureus Cowan I in the presence of a test compound. The level of inhibition of IL-12 production can be measured by determining the amount of p70 by using a sandwich ELISA assay with anti-human IL-12 antibodies. IC50 of the test compound can then be determined. Specifically, PBMC or THP-1 cells are incubated with the test compound. Cell viability was assessed using the bioreduction of MTS [3-(4,5-dimethylthiazol-2-yl)-5-(3-carboxymethoxyphenyl)-2-(4-sulfophenyl)-2H-tetrazolium] (Promega, Madison, Wis.).
Reagents. Staphylococcus aureus Cowan I (SAC) was obtained from Calbiochem (La Jolla, Calif.), and lipopolysaccharide (LPS, Serratia marscencens) was obtained from Sigma (St Louis, Mo.). Human and mouse recombinant IFNγ were purchased from Boehringer Mannheim (Mannheim, Germany) and Pharmingen (San Diego, Calif.), respectively.
Human In Vitro Assay. Human PBMC were isolated by centrifugation using Ficoll-Paque (Pharmacia Biotech, Uppsala, Sweden) and prepared in RPMI medium supplemented with 10% fetal calf serum (FCS), 100 U/mL penicillin, and 100 μg/mL streptomycin. PBMC were plated in wells of a 96-well plate at a concentration of 5×10^5 cells/well, and primed by adding IFNγ (30 U/mL) for 22 h and stimulated by adding LPS (1 μg/mL), or by adding IFNγ (100 U/mL) and then stimulated by adding SAC (0.01%). A test pyrimidine compound was dissolved in DMSO, and added to wells of the 96-well plate. The final DMSO concentration was adjusted to 0.25% in all cultures, including the compound-free control. Human THP-1 cells were plated in wells, primed by adding IFNγ (100 U/mL) for 22 h and stimulated by adding SAC (0.025%) in the presence of different concentrations of the pyrimidine compound. Cell-free supernatants were taken 18 h later for measurement of cytokines. Cell viability was assessed using the bioreduction of MTS. Cell survival was estimated by determining the ratio of the absorbance in compound-treated groups versus compound-free control.
The supernatant was assayed for the amount of IL-12p40, IL-12p70, or IL-10 by using a sandwich ELISA with anti-human antibodies, i.e., a Human IL-12 p40 ELISA kit from R&D Systems (Berkeley, Calif.), and a Human IL-12 p70 or IL-10 ELISA kit from Endogen (Cambridge, Mass.). Assays were based on the manufacturer's instructions.
The biological activities of compounds were tested on human PBMC or THP-1 cells.

SMILES	IC50
CSc1nc(NC(=O)Nc2cccc(C)c2)nc(-c2cccnc2)n1 [Compound 145, 1-(4-(methylthio)-6-(pyridin-3-yl)-1,3,5-triazin-2-yl)-3-m-tolylurea]	> 1000 nM
Cc1[nH]c2ccc(NC(=O)c3cc(NCCN4CCOCC4)nc(N(C)C)n3)cc2c1C [Compound 147, N-(2,3-dimethyl-1H-indol-5-yl)-2-(dimethylamino)-6-(2-morpholinoethylamino)pyrimidine-4-carboxamide]	> 1000 nM
Cc1[nH]c2ccc(NC(=O)c3cc(NCCN4CCOCC4)nc(N4CCSC4)n3)cc2c1C [Compound 148, N-(2,3-dimethyl-1H-indol-5-yl)-6-(2-morpholinoethylamino)-2-(thiazolidin-3-yl)pyrimidine-4-carboxamide]	55 nM

Reference: patent publication US7919487B2, “Heteroaryl compounds” (Synta Pharmaceuticals Corporation, priority 2004, dated 2011)
